This series can be described thus: Cytotoxicity evaluation, CCK analysis kit. In kind it is cell-based. The settings on record: human, MM.1S (CRL-2974) multiple myeloma cells; MM.1S cells, treated for 3 days. The method, then:
The MM.1S (CRL-2974) cell line, which is a human multiple myeloma cell line, was purchased from the American Type Culture Collection (ATCC, Manassas, VA, USA) and used, and incubated using RPMI1640 medium (Corning, MD, USA) supplemented with 10% fatal bovine serum (Corning, MD, USA), 100 U/ml of penicillin (Corning, MD, USA), and 100 μg/ml of streptomycin (Corning, MD, USA) at 37° C. in a 5% CO2 incubator for 24 hours.

By IC50 is commonly meant the midpoint of a concentration-inhibition curve. A lower IC50 goes with greater potency in that assay. Turning to `Nc1cccc2c1C(=O)N(C1CCC(=O)NC1=O)C2=O` (racemic) [pomalidomide, (R,S)-4-amino-2-(2,6-dioxopiperidin-3-yl)isoindole-1,3-dione, reference compound], 69 nM corresponded to half-maximal inhibition (IC50 at 3 days). That is a double-digit nanomolar value.

The record behind these values is patent US20250161286A1 (AEVIS BIO, INC., priority 2022, published 2025).
